{"source": "patent US20220281930A1", "about": "“COMPOSITIONS AND METHODS FOR THE TREATMENT OF PATHOLOGICAL PAIN AND ITCH” (DUKE UNIVERSITY, priority 2019, published 2022)", "key": {"brain reward mechanisms": {"system": "brain reward mechanisms", "test": "Conditioned place preference (CPP)", "assay_type": "in vivo, mouse", "settings": "30 mg/kg i.p.; KP vs vehicle", "description": "Conditioned place preference (CPP) was conducted using a CPP box, which consists of two conditioning chambers distinguished by visual and sensory cues, along with a small buffering chamber. All mice received a 3-day preconditioning habituation period with free access to both conditioning chambers and the time spent in each chamber was recorded for 15 min on day 3 after habituation. On conditioning days (day 4-10), mice first received the vehicle control (i.p. 5% DMSO, 5% Tween-80 in normal saline) paired with a randomly chosen chamber in the morning. After 4 hours, mice received KP (i.p. 30 mg/kg) or vehicle, paired with the other chamber. During the conditioning, mice were allowed to stay only in the paired chamber for 15 min without access to other chambers. On test day (d11), mice were placed in the buffering chamber with free access to both conditioning chambers and choice behavior was recorded for 15 min. The CPP scores were calculated as post-conditioning time minus preconditioning time spent in the paired chamber.\nWith these beneficial effects of KP on pathologic pain and itch, whether KP had undesirable effects on the CNS in terms of sedation, impairment of motor stamina, balance and coordination was assessed. […]"}, "δ-cat": {"system": "δ-cat", "test": "Nuclear transfer of transfected human δ-cat in N2a cells", "assay_type": "cell-based, mouse", "text": "Plasmid containing human δ-catenin (CTNND2, NM_001288717) open reading frame was obtained from GeneCopeia (EX-A4285-M02) and cloned into pCMV-ENTER vector (Origene PS100001). Site-directed mutagenesis using Phusion DNA Polymerase enzyme (Thermofisher F549L) in conjunction with complementary primers bearing the specific mutation were used to generate the S276A […] mutation S276A. PCR was followed by Dpn1 enzyme digestion to remove parental plasmid DNA. All constructs were verified by sequencing. pCS-CMV-tdTomato plasmid was obtained from Addgene (cat. #30530).\nTo investigate the relevance of δ-cat residue S276, N2a neural cells were studied because these cells transfect at higher efficiency than primary cortical neurons. In our cultures, N2a cells expressed neuronal ßIII-tubulin in elongated processes as determined by immune-labeling as an indicator of their neuronal differentiation. […] This increase in nuclear transfer was very similar to the trafficking we recorded in primary cortical neurons, thus validating the cell line. […] Of note, there was no increase of nuclear transfer of δ-cat(S276A) upon KP treatment (FIG. 8C and FIG. 8D)."}, "KCC2 protein": {"system": "KCC2 protein", "test": "KCC2 immuno-staining morphometry of spinal cord dorsal horn", "assay_type": "in vivo, mouse", "settings": "KP 10 mg/kg; nerve constriction injury and CFA inflammatory pain models", "description": "All mice were deeply anaesthetized with isoflurane and then transcardially perfused with ice-cold 4% paraformaldehyde in 0.1 M phosphate buffer, pH 7.4 (4% PFA). Dissected spinal cord samples were then post-fixed overnight in 4% PFA at 4° C., cryoprotected in a 20% sucrose solution in PBS at 4° C., frozen in Tissue-Tek OCT (Sakura), and stored at −80° C. until sectioning. Samples were sectioned at 20 μm using a cryostat (Microm HM 505N). The sections were blocked with 2% bovine serum albumin (BSA) in PBS with 0.3% Triton X-100 (Blocking solution) at room temperature for 1 h. The sections were treated with primary antibody in blocking solution at 4° C. overnight. The sections were washed three times followed by secondary antibody treatment at 4° C. for 2 hours. Anti-KCC2 antibody was validated as described above for immuno-cytochemistry. The goat anti-rabbit IgG Alexa Fluor 488 was obtained from Invitrogen (A-11008). […]\nWith the aforementioned findings and in view of the SCDH as the likely site of analgesic action of KP (Coull et al., 2003, Nature 424:938-942; Gagnon et al., 2013, Nat Med 19:1524-1528), SCDH KCC2 expression and function in nerve injury and response to KP was assessed. […] SCDH KCC2 protein expression was measured morphometrically after KCC2 immunolabeling using SCDH laminae I-II as the region-of-interest (FIG. 5B)."}, "KCC2 mRNA": {"system": "KCC2 mRNA", "test": "KCC2 mRNA RT-qPCR in primary human cortical neurons", "assay_type": "cell-based", "settings": "KP 50, 100, 400 nM, 48 h", "description": "The neuron-enriched cultures were established from fetal cortical specimens at 15-20 weeks of gestation. The protocols for tissue processing complied with all federal and institutional guidelines. The cultures were plated on PEI (polyethyleneimine solution) substrate and maintained in Neurobasal media supplemented with B27 as previously described (Pelsman et al., 2003, International journal of developmental neuroscience 21:117-124; Yeo et al., 2013, Proc Natl Acad Sci USA 110:4315-4320).\nFor RT-qPCR, the cell pellets were collected after treatments with vehicle (0.1% DMSO) or KP (50, 100, and 400 nM) for 48 h starting at day 6 in vitro.\nTotal RNA was isolated from cultured cell samples using Directzol RNA miniprep kit (ZymoResearch). The protocol includes DNAse digestion to exclude genomic DNA from preparations. Total RNA (1 μg) was reverse transcribed using oligo primers (dT) and SuperScriptIII first-strand synthesis kit (Invitrogen). Gene expression was assessed by quantitative real-time PCR using 2×SYBR Green Master Mix (Qiagen) and a three-step cycling protocol (anneal at 60° C./elongate at 72° C., denature at 95° C.). […] The amount of target messenger RNA (mRNA) in the experimental group relative to that in the control was determined from the resulting fluorescence and threshold values (Ct) using the ΔΔCt method. βIII-tubulin was used as housekeeping gene. […]"}}, "data": [{"smiles": "O=C1Cc2c([nH]c3ccc(Br)cc23)-c2ccccc2N1", "note": "[kenpaullone, 9-bromo-7,12-dihydro-indolo [3,2-d] [1]benzazepin-6(5H)-one]", "values": [{"measurement": "CPP scores", "setting": "brain reward mechanisms", "result": "No significant difference in CPP scores"}, {"measurement": "nuclear transfer of δ-cat", "setting": "δ-cat; cells transfected with δ-cat(S276A), KP treatment", "result": "had no effect"}, {"measurement": "nuclear transfer of δ-cat", "setting": "δ-cat; cells transfected with δ-cat(WT), KP vs vehicle", "result": "significantly enhances"}, {"measurement": "KCC2 protein expression in SCDH", "setting": "KCC2 protein", "result": "increases KCC2 protein expression"}, {"measurement": "KCC2 mRNA", "setting": "KCC2 mRNA", "result": "increases in a dose-dependent manner"}]}]}
